The values that follow are results of earlier work, collected in patent US20250066696A1, “A STABLE BLEACH COMPOSITION” (Conopco Inc., d/b/a UNILEVER, priority 2021, published 2025).

On to `CCCCC(C)CCC(=O)O` (stereo not shown) [4-methyl octanoic acid], for which the pKa is reported as 5.23.
